Key:
mouse neutrophils [1] = test: Disinfection activity of mouse neutrophils phagocytizing E. coli; type: cell-based; conditions: Ac-PGP 0.1 to 100 nM for 20 minutes, FIG. 11
Method: (§1) Mouse neutrophils were separated from peripheral blood using a Histopaque-1077 solution (Sigma) (Bae Y S et al. 2001 Blood. 97: 2854-2862). The neutrophils separated from normal mice were stimulated with various concentrations of Ac-PGP for 10 minutes in the presence of cytochalasin B (5 μM). To identify the role of mCXCR2, the neutrophils were pre-incubated in various concentrations of SB225002 or a vehicle (DMSO) for 30 minutes in a stationary environment, and Ac-PGP (20 μM) was added, and incubated for 10 minutes. H2O2 in a supernatant was measured using a H2O2 measurement kit (Molecular probe).
The disinfection activities of the neutrophils were measured according to a method disclosed by Yan et al. (Yan J J et al. 2004 Nat. Med. 10:161-167). The neutrophils were stationarily incubated at 37° C. for an hour on a 13 mm plastic cover slip in a 60 mm plastic culture dish. The non-attached cells were removed by PBS. The attached neutrophils were stationarily incubated for an hour with 10^6 opsonized E. coli cells. The non-phagocytized E. coli cells were washed, and the number of bacteria surviving in the neutrophils was determined before and after the E. coli cells were treated with various concentrations of Ac-PGP or vehicle for an hour. A percentage of the apoptosized bacteria was calculated as follows. […]

E. coli-vaccinated mice = test: Survival in E. coli-induced sepsis model; type: in vivo; conditions: E. coli 1×10^9 cells/mouse; 17.5 mg/kg four times from 2 hours after vaccination; compared with PBS
Method: Male WT ICR mice were used to evaluate a therapeutic effect of Ac-PGP. IFN-γ-deficient mice (kindly provided by Y. K. Kim at the Pohang University of Science and Technology, Pohang, Republic of Korea) were used for mechanism study. All Examples in which animals were used were performed according to the instructions with permission of the Institutional Review Board (IRB) for the care and management of laboratory animals at Dong-A University. In the case of the CLP, mice were anesthetized with pentothal sodium (50 mg/kg, intraperitoneally injected), and abdomen of each mouse was cut along a central cutting line to expose an appendix. Then, an ileocecal valve of the appendix was tied up, both surfaces of the ileocecal valve were punctured twice with a 22-gauge needle (or punctured once to measure a production amount of cytokines), and the abdomen was sutured. Sham CLP mice were treated in the same manner as described above, except that CLP of the appendix was not performed. A survival rate of the mice was monitored every day for 10 days. In the case of the LPS or E. coli model, E. coli and LPS were intraperitoneally injected at concentrations of 1×10^9 cells/mouse and 60 mg/kg, respectively. A survival rate of the mice was monitored once a day for 10 days.
In another mouse model of sepsis, a therapeutic effect of Ac-PGP was also evaluated.

human neutrophils = test: Cytokine production by LPS-stimulated human neutrophils; type: cell-based; conditions: human neutrophils stimulated with LPS
Text: (§2) All kinds of protocols used in human beings were approved by the Institutional Review Board (IRB) at Dong-A University Hospital, and prior consents were obtained from all blood donors. Peripheral blood was collected from healthy donors, and human peripheral monocytes were separated using a Histopaque-1077 gradient. Neutrophils were separated through methods such as dextran precipitation of red blood cell, hypotonic lysis, and usage of lymphocyte isolation medium gradient, as known in the related art (Bae, Y. S. et al. Blood 97, 2854-2862(2001)). The separated human leukocytes were used immediately.
(§3) Next, an effect of the Ac-PGP on production of cytokines by human neutrophils and PBMCs was examined. […] A human CXCR2 chemokine agonist CXCL8 had few effects on production of TNF-α or IFN-γ stimulated with LPS (FIG. 28 to FIG. 31). Therefore, the Ac-PGP could improve both antiseptic activities in leukocytes derived from human beings and mice.

CLP mice = test: Histological analysis (hematoxylin and eosin) of major internal organs of CLP mice; type: in vivo, mouse; conditions: FIG. 7
Method: A mouse was subjected to CLP surgery, and after 2 hours, PBS or Ac-PGP was injected at a dose of 17.5 mg/kg to the mouse. After the CLP surgery, the mouse was sacrificed within 24 hours, and the lung of the mouse was fixed, microtomed, and stained with hematoxylin and eosin so as to perform morphological analysis.
The defunctionalization of the major internal organs such as lungs was associated with the mortality after sepsis. A morphological change was observed by performing hematoxylin and eosin staining. […] Liver tissues from the CLP mice were necrotized to a higher extent, but the necrosis of the liver tissues was decreased by administration of Ac-PGP. […] Most of the apoptosis in the thymus or spleen of a CLP mouse was caused in the cortex of the thymus or spleen in which immature cells were populated. When compared with those of the sham or Ac-PGP mice, an important morphological change in apoptotic cells of the CLP mice is that small compact pyknosis containing multiple nuclear fragments were present in apoptotic lymphocytes (FIG. 7). […] The apoptosis of immune cells was also accompanied with sepsis.

PBMCs = test: Cytokine production by LPS-stimulated human PBMCs; type: cell-based; conditions: human PBMCs stimulated with LPS
Text: as §2, §3

mouse neutrophils [2] = test: H2O2 production in mouse neutrophils; type: cell-based; conditions: various concentrations, 10 minutes, cytochalasin B 5 μM; FIG. 12
Method: as §1
A death rate by CLP is correlated with the number of bacterial colonies in a peritoneal fluid. Therefore, an effect of the Ac-PGP on removal of bacteria in a peritoneal fluid was examined. […] In vitro disinfection activity of the Ac-PGP was examined using neutrophils derived from a mouse. The mouse neutrophils were kept for an hour to phagocytize E. coli, and then stimulated with various concentrations of Ac-PGP (0.1 to 100 nM) for 20 minutes. […] A reactive oxygen species such as hydrogen peroxide was known as an important molecule participating in the disinfection activity. Therefore, an effect of Ac-PGP on production of hydrogen peroxide in the mouse neutrophils was examined. […]

acetylated-Pro-Gly-Pro [Ac-PGP]
disinfection activity (mouse neutrophils [1]): highly increased the disinfection activity in a dose-dependent manner | death rate (E. coli-vaccinated mice): death rate decreased | production of TNF-α (human neutrophils; FIG. 28): remarkably suppressed | production of IFN-γ (human neutrophils; FIG. 30): remarkably improved | necrosis of the liver tissues (CLP mice; 17.5 mg/kg 2 hours after CLP): decreased | formation of alveolar congestion and thrombotic lesions in the lungs (CLP mice): remarkably suppressed | production of TNF-α (PBMCs; FIG. 29): remarkably suppressed | production of IFN-γ (PBMCs; FIG. 31): remarkably improved | production of hydrogen peroxide (mouse neutrophils [2]): strongly increased production of hydrogen peroxide in a concentration-dependent manner
